Consider 30 compounds from US11021481B2, “Substituted isoindolin-1-ones and 2,3-dihydro-1h-pyrrolo[3,4-c]pyridin-1-ones as HPK1 antagonists” (Nimbus Saturn, Inc., priority 2019, dated 2021).

Broadly, the pIC50 is the IC50 on a negative log10 scale, so that one unit is a factor of ten.

SMILES strings stand for the structures. pIC50: −log10 of the molar value. A value given as a limit tells only on which side of the number the result lay.

Sequence of HPK1 (Q92918 whole entry): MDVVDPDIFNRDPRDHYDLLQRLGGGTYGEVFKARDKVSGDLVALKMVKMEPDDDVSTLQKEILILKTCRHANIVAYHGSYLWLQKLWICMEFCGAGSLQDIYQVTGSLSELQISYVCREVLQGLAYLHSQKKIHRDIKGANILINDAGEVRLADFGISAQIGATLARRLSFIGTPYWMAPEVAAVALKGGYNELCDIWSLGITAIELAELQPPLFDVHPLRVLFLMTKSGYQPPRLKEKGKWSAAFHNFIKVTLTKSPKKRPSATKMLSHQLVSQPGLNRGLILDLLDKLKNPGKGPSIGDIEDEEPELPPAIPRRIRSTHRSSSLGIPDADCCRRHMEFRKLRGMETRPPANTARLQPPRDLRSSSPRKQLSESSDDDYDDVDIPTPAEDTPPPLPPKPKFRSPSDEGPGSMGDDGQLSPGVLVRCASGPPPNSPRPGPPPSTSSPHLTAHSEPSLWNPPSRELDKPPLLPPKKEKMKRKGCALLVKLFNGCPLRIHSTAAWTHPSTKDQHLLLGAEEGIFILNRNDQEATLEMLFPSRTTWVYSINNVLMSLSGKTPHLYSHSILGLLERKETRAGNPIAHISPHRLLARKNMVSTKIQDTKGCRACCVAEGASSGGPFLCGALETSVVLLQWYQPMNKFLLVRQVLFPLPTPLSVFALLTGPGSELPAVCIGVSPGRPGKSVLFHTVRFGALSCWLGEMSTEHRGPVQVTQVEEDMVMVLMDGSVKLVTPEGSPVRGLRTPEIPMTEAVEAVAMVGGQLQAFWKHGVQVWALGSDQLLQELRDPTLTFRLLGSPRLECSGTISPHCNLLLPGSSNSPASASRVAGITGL

The test addresses HPK1 (Homo sapiens (Human), UniProt Q92918). Put plainly: HPK1 biochemical enzyme assay (microfluidic mobility shift assay). As to conditions: 1.5 nM HPK1, ATP 1 mM final, 30 min preincubation, 60 min at RT, Caliper EZ Reader; read-out: HPK1 1000UMATP caliper IC50. The method, boiled down: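 Ten-point compound titrations (top 3 μM final) preincubated 30 min with HPK1 and substrate, then reaction started with 1 mM ATP and 1 μM substrate, 5 mM MgCl2. After 60 min at RT, reaction terminated and product measured by microfluidic mobility shift.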
In the case of `CN1CC(c2ccn3c(-c4ccc(Nc5ccc(N6CCC(O)CC6)cn5)c5c4CNC5=O)cnc3c2)C1` [I-411, 7-((5-(4-hydroxy-piperidin-1-yl)pyridin-2-yl)amino)-4-(7-(1-methylazetidin-3-yl)imidazo[1,2-a]pyridin-3-yl)isoindolin-1-one], the pIC50 was over 7.00.

With `CN1CCN(CC2(O)CCN(c3ccc(Nc4ccc(-c5cnc6cnccn56)c5c4C(=O)NC5)nc3)CC2)CC1` [I-412, 7-((5-(4-hydroxy-4-((4-methylpiperazin-1-yl)methyl)piper-idin-1-yl)pyridin-2-yl)amino)-4-(imidazo[1,2-a]pyrazin-3-yl)isoindolin-1-one], the pIC50 is over 7.00.

Turning to `Cn1ccc2c(-c3ncc(Nc4ccc5c(n4)CNCC5)c4c3CNC4=O)ccnc21` [I-413], the pIC50 was under 6.00.

Take `COC[C@H]1CN(c2ccc(Nc3cnc(-c4ccnc5c4ccn5C)c4c3C(=O)NC4)nc2)CC[C@@H]1O` [I-414]: the pIC50 was over 7.00.

Take `Cn1ccc2c(-c3ncc(Nc4cccc(C5CNC5)n4)c4c3CNC4=O)ccnc21` [I-415, 7-((6-(azetidin-3-yl)pyridin-2-yl)amino)-4-(1-methyl-1H-pyrrolo[2.3-b]pyridin-4-yl)-2,3-dihydro-1H-pyrrolo[3,4-c]pyridin-1-one]: the pIC50 is over 7.00.

Consider `Cn1ccc2c(-c3ncc(Nc4ccc(N5CC[C@@H](F)[C@H](O)C5)cn4)c4c3CNC4=O)ccnc21` [I-416, 7-((5-((3R,4R)-4-fluoro-3-hydroxy-piperidin-1-yl)pyridin-2-yl)amino)-4-(1-methyl-1H-pyrrolo[2,3-b]pyridin-4-yl)-2,3-dihydro-1H-pyrrolo[3,4-c]pyridin-1-one], for which the pIC50 was over 7.00.

With `Cn1ccc2c(-c3ncc(Nc4ccc(N5CC[C@H](F)[C@@H](O)C5)cn4)c4c3CNC4=O)ccnc21` [I-417, 7-((5-((3S,4S)-4-fluoro-3-hydroxy-piperidin-1-yl)pyridin-2-yl)amino)-4-(1-methyl-1H-pyrrolo[2,3-b]pyridin-4-yl)-2,3-dihydro-1H-pyrrolo[3,4-c]pyridin-1-one], the pIC50 is over 7.00.

As to `CN1CCc2ccc(Nc3cnc(-c4ccnc5c4ccn5C)c4c3C(=O)NC4)nc2C1` [I-418, 4-(1-methyl-1H-pyrrolo[2,3-b]pyridin-4-yl)-7-((7-methyl-5,6,7,8-tetrahydro-1,7-naphthyridin-2-yl)amino)-2,3-dihydro-1H-pyrrolo[3,4-c]pyridin-1-one], the pIC50 was under 6.00.

As to `CN1CCC[C@H](c2cccc(Nc3cnc(-c4ccnc5c4ccn5C)c4c3C(=O)NC4)n2)C1` [I-419, (S)-4-(1-methyl-1H-pyrrolo[2,3-b]pyridin-4-yl)-7-((6-(1-methylpiperidin-3-yl)pyridin-2-yl)amino)-2.3-dihydro-1H-pyrrolo[3,4-c]pyridin-1-one], the pIC50 was under 6.00.

Consider `CN1CCC[C@@H](c2cccc(Nc3cnc(-c4ccnc5c4ccn5C)c4c3C(=O)NC4)n2)C1` [I-420, (R]-4-(1-methyl-1H-pyrrolo[2,3-b]pyridin-4-yl)-7-((6-(1-methylpiperidin-3-yl)pyridin-2-yl)amino)-2.3-dihydro-1H-pyrrolo[3,4-c]pyridin-1-one], for which the pIC50 was over 7.00.

Turning to `COC[C@H]1CN(c2ccc(Nc3ccc(-c4cnc5cc(F)ccn45)c4c3C(=O)NC4)nc2)CCO1` [I-421, (R)-4-(7-fluoroimidazo [1,2-a]pyridin-3-yl)-7-((5-(2-(methoxymeth-yl)morpholino)pyridin-2-yl)amino)isoin-dolin-1-one], the pIC50 is over 7.00.

As for `Cn1cc2c(-c3ccc(Nc4ccc(N5CCC(O)CC5)cn4)c4c3CNC4=O)cnc-2cn1` [I-422, 7-((5-(4-hydroxy-piperidin-1-yl)pyridin-2-yl)amino)-4-(5-methyl-5H-pyrrolo[2,3-d]pyridazin-3-yl)isoindolin-1-one], the pIC50 is 6.00 to 7.00.

For the compound `COC[C@H]1CN(c2ccc(Nc3cnc(-c4ccnc5c4ccn5C)c4c3C(=O)NC4)nc2)CC[C@H]1O` [I-423, 7-((5-((3R,4R)-4-hydroxy-3-(methoxymeth-yl)piperidin-1-yl)pyridin-2-yl)amino)-4-(1-methyl-l H-4-pyrrolo[2,3-b]pyridin-4-yl)-2,3-dihydro-1H-pyrrolo[3,4-c]pyridin-1-one], the pIC50 is over 7.00.

Consider `Cn1ccc2c(-c3ccc(Nc4ncc(N5CCC(O)CC5)cc4F)c4c3CNC4=O)ccnc21` [I-424, 7-((3-fluoro-5-(4-hydroxy-piperidin-1-yl)pyridin-2-yl)amino)-4-(1-methyl-1H-pyrrolo[2,3-b]pyridin-4-yl)isoindolin-1-one], for which the pIC50 was over 7.00.

With `Cn1cc(-c2ccc(Nc3ccc(N4CCC(O)CC4)cn3)c3c2CNC3=O)c2cnncc21` [I-425, 7-((5-(4-hydroxy-piperidin-1-yl)pyridin-2-yl)amino)-4-(1-methyl-1H-pyrrolo[2,3-d]pyridazin-3-yl)isoindolin-1-one], the pIC50 is over 7.00.

As for `Cn1ccc2c(-c3ccc(Nc4ccc(N5CCC(O)CC5)cn4)c4c3CNC4=O)cnc-2n1` [I-426, 7-((5-(4-hydroxy-piperidin-1-yl)pyridin-2-yl)amino)-4-(2-methyl-2H-pyrrolo[2,3-c]pyridazin-5-yl)isoindolin-1-one], the pIC50 is over 7.00.

With `Cn1ccc2c(-c3ncc(Nc4ccc(C5(O)CCOCC5)cn4)c4c3CNC4=O)ccnc21` [I-427], the pIC50 is over 7.00.

In the case of `O=C1NCc2c(-c3cnc4cc(F)ccn34)ccc(Nc3ccc(N4CCC(CN5CCOCC5)CC4)cn3)c21` [I-428, 4-(7-fluoroimidazo [1,2-a]pyridin-3-yl)-7-((5-(4-(morpholinomethyl)piperidin-1-yl)pyridin-2-yl)amino)isoin-dolin-1-one], the pIC50 is over 7.00.

Turning to `CC1(N2CCOCC2)CCN(c2ccc(Nc3ccc(-c4cnc5cc(F)ccn45)c4c3C(=O)NC4)nc2)CC1` [I-429, 4-(7-fluoroimidazo [1,2-a]pyridin-3-yl)-7-((5-(4-methyl-4-morpholinopip-eridin-1-yl)pyridin-2-yl)amino)isoin-dolin-1-one], the negative logarithm of the IC50 (pIC50) is over 7.00.

Regarding `Cn1ccc2c(-c3ncc(Nc4cccc(C5(C)CCNCC5)n4)c4c3CNC4=O)ccnc21` [I-430, 4-(1-methyl-1H-pyrrolo[2,3-b]pyridin-4-yl)-7-((6-(4-methylpiperidin-4-yl)pyridin-2-yl)amino)-2,3-dihydro-1H-pyrrolo[3,4-c]pyridin-1-one], the pIC50 is under 6.00.

Take `Cn1ccc2c(-c3ncc(Nc4cccc(N5CC[C@@H](N6CCCC6)C5)n4)c4c3CNC4=O)ccnc21` [I-431, (R)-7-((6-([1,3-bipyrrolidin]-1-yl)pyridin-2-yl)amino)-1-(1-methyl-1H-pyrrolo[2,3-b]pyridin-4-yl)-2,3-dihydro-1H-pyrrolo[3,4-c]pyridin-1-one]: the pIC50 is over 7.00.

`CN1CC(c2cccc(Nc3cnc(-c4ccnc5c4ccn5C)c4c3C(=O)NC4)n2)C1` [I-432, 4-(1-methyl-1H-pyrrolo[2,3-b]pyridin-4-yl)-7-((6-(1-methylazetidin-3-yl)pyridin-2-yl)amino)-2,3-dihydro-1H-pyrrolo[3,4-c]pyridin-1-one]: the pIC50 is under 6.00.

`CC1(CO)CCN(c2ccc(Nc3ccc(-c4cnc5cc(F)ccn45)c4c3C(=O)NC4)nc2)CC1` [I-433, 4-(7-fluoroimidazo [1,2-a]pyridin-3-yl)-7-((5-(4-(hydroxymeth-yl]-4-methylpiperidin-1-yl)pyridin-2-yl)amino)isoin-dolin-1-one]: the pIC50 was over 7.00.

`O=C1NCc2c(-c3cnc4cnccn34)ccc(Nc3ccc(N4CC[C@@H](F)[C@H](O)C4)cn3)c21` [I-434, 7-((5-((3R,4R)-4-fluoro-3-hydroxypiperidin-1-yl)pyridin-2-yl)amino)-4-(imidazo[1,2-a]pyrazin-3-yl)isoindolin-1-one]: the pIC50 was over 7.00.

For `O=C1NCc2c(-c3cnc4cnccn34)ccc(Nc3ccc(N4CC[C@H](F)[C@@H](O)C4)cn3)c21` [I-435, 7-((5-((3S,4S)-4-fluoro-3-hydroxypiperidin-1-yl)pyridin-2-yl)amino)-4-(imidazo[1,2-a]pyrazin-3-yl)isoindolin-1-one], the pIC50 was over 7.00.

Turning to `COC[C@@H]1CN(c2ccc(Nc3cnc(-c4ccnc5c4ccn5C)c4c3C(=O)NC4)nc2)CC[C@@H]1O` [I-436, 7-((5-((3S,4S)-4-hydroxy-3-(methoxymeth-yl)piperidin-1-yl)pyridin-2-yl)amino)-4-(1-methyl-1H-pyrrolo[2,3-b]pyridin-4-yl)-2,3-dihydro-1H-pyrrolo[3,4-c]pyridin-1-one], the pIC50 was over 7.00.

As for `CN1CCN(CC2(O)CCN(c3ccc(Nc4ccc(-c5cnc6cc(Cl)ccn56)c5c4C(=O)NC5)nc3)CC2)CC1` [I-437, 4-(7-chloroimidazo [1,2-a]pyridin-3-yl)-7-((5-(4-hydroxy-4-((4-methylpiperazin-1-yl)methyl)piper-idin-1-yl)pyridin-2-yl)amino)isoin-dolin-1-one], the pIC50 is over 7.00.

For the compound `Cc1ccn2c(-c3ccc(Nc4ccc(N5CCC(O)(CN6CCOCC6)CC5)cn4)c4c3CNC4=O)cnc2c1F` [I-439, 4-(8-fluoro-7-methylimidazo [1,2-a]pyridin-3-yl)-7-((5-(4-hydroxy-4-(morpholinomethyl)piperidin-1-yl)pyridin-2-yl)amino)isoin-dolin-1-one], the negative-log IC50 (pIC50) was over 7.00.

Turning to `Cn1ccc2c(-c3ncc(Nc4cccc(N5CC[C@H]6CNC[C@H]65)n4)c4c3CNC4=O)ccnc21` [I-440, 7-((6-((3aS,6aS)-hexahydropy-rrolo[3,4-b]pyrrol-(2H)-yl)pyridin-2-yl)amino)-4-(1-methyl-1H-pyrrolo[2,3-b]pyridin-4-yl)-2,3-dihydro-1H-pyrrolo[3,4-c]pyridin-1-one], the negative logarithm of the IC50 (pIC50) is over 7.00.

For the compound `Cn1ccc2c(-c3ncc(Nc4cccc(N5CC[C@@H]6CNC[C@@H]65)n4)c4c3CNC4=O)ccnc21` [I-441, 7-((6-((3aR,6aR)-hexahydro-pyrrolo[3,4-b]pyrrol-1(2H)-yl)pyridin-2-yl)amino)-4-(1-methyl-1H-pyrrolo[2,3-b)pyridin-4-yl)-2,3-dihydro-1H-pyrrolo[3,4-c]pyridin-1-one], the pIC50 is 6.00 to 7.00.
